Here are results for seven compounds from ChEMBL document CHEMBL1201862, “PubChem BioAssay data set” (2004).

Each structure is given as a SMILES string. The source made the active and inactive calls. Some results are limits rather than exact numbers.

The target in experiment [1] is Ras and Rab interactor 1/Tyrosine-protein kinase ABL1 (Homo sapiens, UniProt P00519+Q13671). It counts as functional.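 Further: biochemical TR-FRET dose-response test measuring inhibition of binding between Rin1 and Abl proteins.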
Experiment [2] addresses Heat shock protein HSP 90-alpha (Homo sapiens, UniProt P07900). It counts as functional, organism-based.
The target of experiment [3] is Serine/threonine-protein phosphatase PP1-alpha catalytic subunit (Homo sapiens, UniProt P62136). Kind of experiment: inhibition of protein phosphatase 1 activity – biochemical, fluorescence, dose response (AID 2403).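 Further: phosphatase turnover of OMFP into fluorescent 3-O-methylfluorescein.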
For experiment [4], the target named is Serine/threonine-protein phosphatase (Homo sapiens, UniProt Q9BPW0). Kind of experiment: Counterscreen for inhibitors of PP1: fluorescence-based biochemical high throughput dose response assay to identify inhibitors of Protein Phosphatase 5 (PP5). [Related pubchem assays: 2034 (Summary (PP5 inhibitors)), 1987 (PP5 inhibitors in singlate), 2235 (PP1 inhibitors in singlate)]. (In general: Counterscreens check selectivity or assay interference.)

Experiment [5] addresses T1, Polyadenylate-binding protein 1 (Homo sapiens, UniProt P11940). Kind of experiment: MLLE domain peptide-binding blockers, IC50 – biochemical, fluorescence polarization, FITC-PAM2 peptide, dose response (AID 602259). The experiment is classed as functional. Particulars: read-out: IC50_Mean. In general terms: Polarisation of emitted light reports the rotation of a fluorescent probe.

For experiment [6], the target named is T1, Polyadenylate-binding protein 1. Description: MLLE binding blockers, Cy5 peptide tracer – biochemical, fluorescence polarization, Cy5-PAM2 peptide, secondary, miRNA deadenylation inhibitor project, dose response (AID 602260). Particulars: read-out: IC50_Mean. The experiment is classed as functional.
The test system of another experiment is Vero. Description: viability of Vero cells under compound – cytotoxicity control for flavivirus capping enzyme inhibitors (AID 588742). It counts as functional. Particulars: Chlorocebus sabaeus.
Experiment [7] can be described thus: fluconazole-exposed Candida albicans growth modulators – fluorescence, retest, confirmation (AID 2467). The experiment is classed as functional, cell-based.
Experiment [8] in a line: NIH-3T3 fibroblast cytotoxicity, dose response, cytotoxicity control, cell-based, fluorescence, Alamar Blue, secondary assay (AID 2327).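 Further: NIH-3T3 mouse fibroblasts cultured with fluconazole at 8 µg/mL.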 It counts as functional. For orientation: The colour change of resazurin is a common sign of viable cells or microbes.
The target in a further experiment is Genome polyprotein (dengue virus type 2, UniProt P29990). Kind of experiment: flavivirus cap methylation enzyme inhibition – biochemical, confirmation dose response, primary screen (AID 588689). The experiment is classed as functional.
The target in another experiment is Aminopeptidase N (Plasmodium falciparum FcB1/Columbia, UniProt O96935). Kind of experiment: malaria alanyl aminopeptidase activity blockers – biochemical, fluorogenic H-Leu-NHMec substrate, 1536-well (AID 1445). Further details: species or system Plasmodium falciparum 3D7, 3D7.
Experiment [9] concerns the target Transitional endoplasmic reticulum ATPase (Homo sapiens, UniProt P55072). Kind of experiment: p97 ATPase inhibitors, dose response, biochemical (AID 1534).
The target in experiment [10] is Transitional endoplasmic reticulum ATPase (Homo sapiens, UniProt P55072, C522A). Kind of experiment: C522A mutant p97 ATPase inhibitors, dose response, counter-screen for p97 inhibitor project, biochemical, luminescence (AID 1544).
In experiment [11] the target is Neuropeptide Y receptor type 2 (Homo sapiens, UniProt P49146). Kind of experiment: Fluorescence-based cell-based high-throughput dose response assay for agonists of NPY-Y2. [Related pubchem assays: 1703 (Screening assay (CNGC inhibitors).), 1359 (Screening assay (NPY-Y2 potentiators or agonists).), 1304 (Screening assay (NPY-Y1 potentiators or agonists).), 1710 (Screening assay (NPY-Y2 agonists).), 1791 (Summary AID.)]. The experiment is classed as functional.

For experiment [12], the target named is Neuropeptide Y receptor type 1 (Homo sapiens, UniProt P25929). Description: Fluorescence-based counterscreen for agonists of NPY-Y2: cell-based high-throughput dose response assay for agonists of NPY-Y1. The experiment is classed as functional.
Neuropeptide Y receptor type 1, sequence (P25929 whole entry): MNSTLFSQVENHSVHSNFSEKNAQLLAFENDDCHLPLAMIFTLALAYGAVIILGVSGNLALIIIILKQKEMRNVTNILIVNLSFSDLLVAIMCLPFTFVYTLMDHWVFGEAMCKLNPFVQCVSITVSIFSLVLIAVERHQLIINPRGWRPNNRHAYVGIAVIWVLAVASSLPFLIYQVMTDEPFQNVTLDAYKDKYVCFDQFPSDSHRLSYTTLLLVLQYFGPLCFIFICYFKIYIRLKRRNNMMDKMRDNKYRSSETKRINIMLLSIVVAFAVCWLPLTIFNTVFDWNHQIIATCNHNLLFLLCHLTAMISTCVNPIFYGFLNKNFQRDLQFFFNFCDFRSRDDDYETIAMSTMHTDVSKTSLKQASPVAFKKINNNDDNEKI
The subject of the next experiment is HEK293. Kind of experiment: Fluorescence-based counterscreen for potentiators or agonists of NPY-Y2: cell-based high-throughput dose response assay to identify inhibitors of cyclic nucleotide gated ion channel (CNGC) activity. In this assay, the parental HEK293 cell line transfected with a cyclic-nucleotide gated ion channel (CNGC)-based cAMP sensor is used to measure inhibition of isoproterenol-induced CNGC activity by test compound. It counts as functional. The following applies: Homo sapiens.

Experiment [13] addresses Peroxisome proliferator-activated receptor gamma/Nuclear receptor coactivator 1 (Homo sapiens, UniProt P37231). Kind of experiment: TR-FRET dose response biochemical High Throughput Screening assay for agonists of the steroid receptor coactivator 1 (SRC-1) recruitment by the peroxisome proliferator-activated receptor gamma (PPAR gamma): non-selective agonists. [Related pubchem assays (depositor defined):AID1300, AID1808, AID504735, AID631]. It counts as protein assay.

The target in experiment [14] is Peroxisome proliferator-activated receptor gamma/Nuclear receptor coactivator 2 (Homo sapiens, UniProt P37231). Description: TR-FRET dose response biochemical High Throughput Screening assay for agonists of the steroid receptor coactivator 2 (SRC-2) recruitment by the peroxisome proliferator-activated receptor gamma (PPAR gamma): non-selective agonists. [Related pubchem assays: 1297, 1032 ]. The experiment is classed as functional.
Peroxisome proliferator-activated receptor gamma/Nuclear receptor coactivator 2, sequence (P37231 whole entry): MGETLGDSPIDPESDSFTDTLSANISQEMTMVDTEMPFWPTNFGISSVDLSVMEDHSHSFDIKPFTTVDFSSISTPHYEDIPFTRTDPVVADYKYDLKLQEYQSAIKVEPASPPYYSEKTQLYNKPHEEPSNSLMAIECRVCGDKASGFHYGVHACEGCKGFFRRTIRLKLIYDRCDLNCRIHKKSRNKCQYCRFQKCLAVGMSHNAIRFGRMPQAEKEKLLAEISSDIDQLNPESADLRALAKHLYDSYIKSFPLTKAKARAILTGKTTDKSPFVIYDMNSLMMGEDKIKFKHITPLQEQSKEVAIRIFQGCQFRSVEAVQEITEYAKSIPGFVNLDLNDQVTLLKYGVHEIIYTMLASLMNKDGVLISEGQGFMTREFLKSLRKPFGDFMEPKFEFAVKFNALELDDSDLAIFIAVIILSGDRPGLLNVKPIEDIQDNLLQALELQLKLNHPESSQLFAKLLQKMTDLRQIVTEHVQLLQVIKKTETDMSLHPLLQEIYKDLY
Peroxisome proliferator-activated receptor gamma/Nuclear receptor coactivator 2, sequence (Q15596 whole entry, further chain): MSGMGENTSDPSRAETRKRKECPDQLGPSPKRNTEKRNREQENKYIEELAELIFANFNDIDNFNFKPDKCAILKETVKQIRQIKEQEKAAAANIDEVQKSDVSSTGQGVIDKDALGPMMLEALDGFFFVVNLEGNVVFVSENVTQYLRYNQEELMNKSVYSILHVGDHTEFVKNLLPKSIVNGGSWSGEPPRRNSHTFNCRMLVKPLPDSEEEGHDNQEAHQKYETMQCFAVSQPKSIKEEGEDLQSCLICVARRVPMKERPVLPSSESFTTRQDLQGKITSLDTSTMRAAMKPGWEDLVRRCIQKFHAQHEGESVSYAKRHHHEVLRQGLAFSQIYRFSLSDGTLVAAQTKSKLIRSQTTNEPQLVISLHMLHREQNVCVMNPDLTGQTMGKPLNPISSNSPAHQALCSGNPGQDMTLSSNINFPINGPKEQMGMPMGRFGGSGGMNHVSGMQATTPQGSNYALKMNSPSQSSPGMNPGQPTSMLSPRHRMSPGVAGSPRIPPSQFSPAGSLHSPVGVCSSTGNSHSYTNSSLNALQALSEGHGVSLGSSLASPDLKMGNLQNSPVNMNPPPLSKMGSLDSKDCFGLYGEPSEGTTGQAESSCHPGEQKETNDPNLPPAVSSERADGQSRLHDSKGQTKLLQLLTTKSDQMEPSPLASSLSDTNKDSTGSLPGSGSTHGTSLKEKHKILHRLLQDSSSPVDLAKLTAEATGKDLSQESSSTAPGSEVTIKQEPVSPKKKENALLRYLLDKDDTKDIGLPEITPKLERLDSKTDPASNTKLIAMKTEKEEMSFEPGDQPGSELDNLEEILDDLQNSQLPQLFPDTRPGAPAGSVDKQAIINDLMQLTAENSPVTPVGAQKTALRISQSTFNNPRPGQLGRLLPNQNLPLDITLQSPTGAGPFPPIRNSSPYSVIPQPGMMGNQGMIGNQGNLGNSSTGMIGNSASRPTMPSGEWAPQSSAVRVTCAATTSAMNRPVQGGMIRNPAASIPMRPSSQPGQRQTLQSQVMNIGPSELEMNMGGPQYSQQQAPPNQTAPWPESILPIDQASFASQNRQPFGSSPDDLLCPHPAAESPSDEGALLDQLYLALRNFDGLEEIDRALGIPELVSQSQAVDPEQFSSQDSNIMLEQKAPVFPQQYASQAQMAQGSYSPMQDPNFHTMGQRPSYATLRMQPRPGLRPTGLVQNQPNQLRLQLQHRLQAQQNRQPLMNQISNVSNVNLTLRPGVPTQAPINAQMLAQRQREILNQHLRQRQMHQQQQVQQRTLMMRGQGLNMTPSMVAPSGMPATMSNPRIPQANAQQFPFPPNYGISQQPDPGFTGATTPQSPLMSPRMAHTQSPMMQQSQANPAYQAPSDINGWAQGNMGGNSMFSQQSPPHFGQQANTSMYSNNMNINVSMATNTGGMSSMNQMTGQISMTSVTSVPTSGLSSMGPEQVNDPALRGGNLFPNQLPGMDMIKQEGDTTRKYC

The target of experiment [15] is Peroxisome proliferator-activated receptor gamma/Nuclear receptor coactivator 3 (Homo sapiens, UniProt P37231). Kind of experiment: TR-FRET dose response biochemical High Throughput Screening assay for agonists of the steroid receptor coactivator 3 (SRC-3) recruitment by the peroxisome proliferator-activated receptor gamma (PPAR gamma): non-selective agonists. [Related pubchem assays: 1301 (Confirmation screen.), 1048 (Primary screen.)]. It counts as functional.

A further experiment has as its system Staphylococcus aureus. Description: Inhibitors of Bacterial Quorum Sensing Structure Activity Relationship (SAR) Analysis: Dose Response Assay. [Related pubchem assays: 700, 527 ]. The experiment is classed as functional, organism-based.
Experiment [16] is described as follows: Counterscreen for IDE inhibitors: Luminescence-based cell-based high throughput dose response assay to identify compounds that are cytotoxic to HEK cells. [Related pubchem assays: 434962 (Primary screen (IDE inhibitors in singlicate)), 449730 (Counterscreen (Cytotoxicity in triplicate)), 435028 (Confirmation (IDE inhibitors in triplicate)) …. The experiment is classed as functional. The following applies: HEK293.

Another experiment addresses T2, Insulin-degrading enzyme (Homo sapiens, UniProt P14735).
T2 sequence (P14735 whole entry): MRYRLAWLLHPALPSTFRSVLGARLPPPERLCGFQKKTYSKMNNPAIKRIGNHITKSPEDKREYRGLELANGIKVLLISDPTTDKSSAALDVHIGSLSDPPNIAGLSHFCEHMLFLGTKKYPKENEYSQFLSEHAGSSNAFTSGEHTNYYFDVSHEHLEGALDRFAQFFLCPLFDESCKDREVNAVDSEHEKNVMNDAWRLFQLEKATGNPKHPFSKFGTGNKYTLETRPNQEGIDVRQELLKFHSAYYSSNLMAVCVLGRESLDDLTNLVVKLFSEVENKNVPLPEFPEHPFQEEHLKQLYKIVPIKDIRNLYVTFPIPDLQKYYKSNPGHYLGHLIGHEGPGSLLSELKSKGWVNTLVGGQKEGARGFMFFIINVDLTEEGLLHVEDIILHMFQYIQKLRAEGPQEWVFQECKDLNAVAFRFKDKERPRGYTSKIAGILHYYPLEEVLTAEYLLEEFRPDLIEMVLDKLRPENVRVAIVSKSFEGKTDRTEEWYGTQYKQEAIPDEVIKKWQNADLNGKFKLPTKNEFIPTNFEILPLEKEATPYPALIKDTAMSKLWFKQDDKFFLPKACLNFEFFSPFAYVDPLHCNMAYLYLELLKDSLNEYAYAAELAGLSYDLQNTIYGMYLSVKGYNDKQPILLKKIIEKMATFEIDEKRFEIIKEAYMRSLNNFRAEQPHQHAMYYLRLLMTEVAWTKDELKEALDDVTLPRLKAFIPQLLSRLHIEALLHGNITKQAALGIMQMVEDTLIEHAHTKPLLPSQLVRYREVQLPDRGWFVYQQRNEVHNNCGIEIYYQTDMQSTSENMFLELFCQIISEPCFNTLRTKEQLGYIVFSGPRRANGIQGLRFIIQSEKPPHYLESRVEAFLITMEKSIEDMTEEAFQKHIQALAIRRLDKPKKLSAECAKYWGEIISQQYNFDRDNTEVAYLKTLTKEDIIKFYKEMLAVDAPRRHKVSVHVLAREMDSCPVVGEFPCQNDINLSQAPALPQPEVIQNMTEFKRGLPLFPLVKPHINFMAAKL
Kind of experiment: Dose Response: Fluorescence polarization-based cell-based high throughput dose response assay for inhibitors of insulin-degrading enzyme (IDE). [Related pubchem assays: 434962 (Primary screen (IDE inhibitors in singlicate)), 449730 (Counterscreen (Cytotoxicity in triplicate)), 435028 (Confirmation (IDE inhibitors in triplicate)), 434984 (Summary …. The experiment is classed as functional.

Experiment [17] is described as follows: A cytotoxicity screen of small molecule inhibitors of the PhoP region in Salmonella typhi identified in the primary screen. [Related pubchem assays: 1850, 1864, 1985 ]. The experiment is classed as functional.

T1 sequence (P11940 whole entry, the tested form may be a part): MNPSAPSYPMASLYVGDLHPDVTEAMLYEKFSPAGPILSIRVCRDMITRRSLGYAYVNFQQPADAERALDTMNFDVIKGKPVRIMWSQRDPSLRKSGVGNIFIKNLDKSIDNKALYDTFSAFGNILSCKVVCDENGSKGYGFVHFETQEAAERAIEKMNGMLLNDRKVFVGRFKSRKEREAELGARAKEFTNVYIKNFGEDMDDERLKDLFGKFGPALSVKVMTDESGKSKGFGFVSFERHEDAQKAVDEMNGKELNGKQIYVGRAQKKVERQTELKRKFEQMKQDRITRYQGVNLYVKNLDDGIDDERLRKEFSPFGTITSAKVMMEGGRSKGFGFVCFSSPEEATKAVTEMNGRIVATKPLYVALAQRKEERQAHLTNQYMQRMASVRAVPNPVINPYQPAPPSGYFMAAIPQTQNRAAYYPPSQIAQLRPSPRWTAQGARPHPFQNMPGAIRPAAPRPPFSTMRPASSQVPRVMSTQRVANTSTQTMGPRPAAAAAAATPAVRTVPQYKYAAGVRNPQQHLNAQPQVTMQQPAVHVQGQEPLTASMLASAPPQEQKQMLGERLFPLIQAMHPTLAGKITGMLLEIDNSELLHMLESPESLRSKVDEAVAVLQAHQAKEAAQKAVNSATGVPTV
Peroxisome proliferator-activated receptor gamma/Nuclear receptor coactivator 1, sequence (P37231 whole entry): as the sequence (P37231 whole entry) above
Peroxisome proliferator-activated receptor gamma/Nuclear receptor coactivator 1, sequence (Q15788 whole entry, further chain): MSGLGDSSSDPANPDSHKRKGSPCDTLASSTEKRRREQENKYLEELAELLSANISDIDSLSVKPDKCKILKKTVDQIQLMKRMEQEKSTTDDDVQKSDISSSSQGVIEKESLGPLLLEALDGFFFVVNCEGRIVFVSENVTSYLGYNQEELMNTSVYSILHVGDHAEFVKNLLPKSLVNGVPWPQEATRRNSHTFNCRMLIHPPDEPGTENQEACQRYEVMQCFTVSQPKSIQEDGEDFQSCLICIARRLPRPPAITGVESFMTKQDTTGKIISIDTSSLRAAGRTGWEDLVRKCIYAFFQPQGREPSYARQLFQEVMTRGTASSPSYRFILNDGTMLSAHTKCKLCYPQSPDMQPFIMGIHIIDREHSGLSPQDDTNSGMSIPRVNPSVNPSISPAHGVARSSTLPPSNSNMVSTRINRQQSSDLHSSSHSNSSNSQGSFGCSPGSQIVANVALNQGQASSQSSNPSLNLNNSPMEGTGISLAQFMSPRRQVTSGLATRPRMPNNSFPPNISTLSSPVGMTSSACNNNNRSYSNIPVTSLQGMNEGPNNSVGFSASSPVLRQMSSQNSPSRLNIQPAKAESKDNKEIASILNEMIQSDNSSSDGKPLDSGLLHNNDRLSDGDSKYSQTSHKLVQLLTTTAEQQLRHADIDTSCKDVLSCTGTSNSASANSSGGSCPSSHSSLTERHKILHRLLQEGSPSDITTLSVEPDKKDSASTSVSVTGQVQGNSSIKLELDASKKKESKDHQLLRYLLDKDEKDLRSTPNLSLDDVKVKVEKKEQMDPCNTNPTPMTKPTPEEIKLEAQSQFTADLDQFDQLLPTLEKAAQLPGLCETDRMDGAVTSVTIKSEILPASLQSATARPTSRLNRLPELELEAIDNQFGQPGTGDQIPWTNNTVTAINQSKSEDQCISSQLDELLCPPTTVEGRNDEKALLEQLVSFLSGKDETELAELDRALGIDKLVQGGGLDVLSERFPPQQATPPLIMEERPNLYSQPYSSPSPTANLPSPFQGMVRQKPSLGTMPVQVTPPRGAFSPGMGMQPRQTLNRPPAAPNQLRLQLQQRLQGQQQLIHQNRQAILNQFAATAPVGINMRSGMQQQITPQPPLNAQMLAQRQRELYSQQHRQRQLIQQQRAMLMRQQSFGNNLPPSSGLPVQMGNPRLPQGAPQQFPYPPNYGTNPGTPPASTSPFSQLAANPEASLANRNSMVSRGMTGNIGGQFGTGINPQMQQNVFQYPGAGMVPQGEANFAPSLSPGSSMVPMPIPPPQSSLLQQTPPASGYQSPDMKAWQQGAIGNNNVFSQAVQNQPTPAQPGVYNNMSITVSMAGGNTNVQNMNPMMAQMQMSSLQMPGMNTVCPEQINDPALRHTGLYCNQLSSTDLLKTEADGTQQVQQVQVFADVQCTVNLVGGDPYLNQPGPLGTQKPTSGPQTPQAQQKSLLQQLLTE

Turning to `CN1CCN(C(c2ccccn2)c2cc(Cl)c3cccnc3c2O)CC1` (stereo not drawn), the IC50 was > 73.5 µM (inactive) in experiment [1]; 4.17 µM (active) in [3]; 47.6 µM (not active) in experiment [4]; > 66 µM (inactive) in experiment [5]; > 66 µM (inactive) in experiment [6]; > 100 µM (active) on Genome polyprotein. In addition, the AC50 in experiment [2] was 6.54 µM (active). For the same compound, the CC50 in the experiment with Vero was 37.2 µM (active). The EC50 is 1.42 µM (active) in experiment [7] and 24.9 µM (active) in experiment [8].

Turning to `CC(C)CCNC(=O)CSc1nc2ccsc2c(=O)n1NC(=O)c1ccccc1`, the IC50 at Aminopeptidase N is 87.1 µM (active).

For `Fc1ccccc1-c1nc(NCc2ccccc2)c2ccccc2n1`, the IC50 in experiment [9] and in experiment [10] was > 50 µM (not active) throughout.

For the compound `CC(C)OC(=O)C(C)Nc1nnc(S)nc1O` (stereo not drawn), the EC50 in [11] is > 35.4 µM (not active); in [12], > 35.4 µM (not active); with HEK293 it was > 35.4 µM (not active); in [13], 4.26 µM (active); in experiment [14], 4.97 µM (active); in experiment [15] it was 35.1 µM (not active).

Regarding `O=C(NCC(c1cccnc1)N1CCN(c2ccccc2F)CC1)c1cccc(Cl)c1` (stereo not drawn), the IC50 with Staphylococcus aureus is 0.597 µM (active).

On to `COC(=O)C1=C(C)N=c2s/c(=C/c3ccoc3)c(=O)n2C1c1ccccc1` (stereo not drawn), for which the results for the IC50 (in [16]; at Insulin-degrading enzyme) were 16.3 µM (not active) and > 2.07 µM (active), respectively.

With `Cc1nn(-c2cc(N3CCNCC3)ccc2[N+](=O)[O-])c(=O)c2ccccc12`, the 50% effective concentration (EC50) in experiment [17] is > 50 µM (active).

For orientation: AC50 means the midpoint of the concentration-response curve, whichever way the signal moves. The CC50 is the concentration at which the toxic effect on the cells reaches its halfway point. By EC50 is commonly meant the concentration that produces a half-maximal response.
